This note sets out measurements from US7666873B2, “N-phenyl-(2R,5S)dimethylpiperazine derivative” (Astellas Pharma Inc., priority 2002, dated 2010).

The subject of data set [1] is ventral prostate of mature male rat. In words: Prostate gland reducing action toward mature male rat. It counts as in vivo. Particulars: 360 h; oral, once a day for 15 days, male Wistar rat, ventral prostate wet weight, linear regression. The method, then:
3. Prostate Gland Reducing Action Toward Mature Male Rat
To a male 9-10 weeks old Wistar rat, the compound of the present invention suspended in a 0.5% methylcellulose solution was orally administered once a day continuously for 15 days. After 6 hours from the final administration, the wet weight of its ventral prostate was measured and a prostate gland reducing of the compound of the present invention was investigated.
The prostate gland reducing of the compound of the present invention was calculated according to the following formula using a group to which the compound of the present invention was administered as a test group and a group to which only methylcellulose was administered as a control group. Lessening ratio (%)=100(B−A)/B
A: Wet weight of ventral prostate in test group
B: Wet weight of ventral prostate in control group
From the lessening ratio determined in the above, an ED50 value was calculated by the linear regression method.

In data set [2] the target is T1, human androgen receptor (Homo sapiens, UniProt P10275).
T1 construct: expressed in transfected cells
T1 sequence (P10275 1-920): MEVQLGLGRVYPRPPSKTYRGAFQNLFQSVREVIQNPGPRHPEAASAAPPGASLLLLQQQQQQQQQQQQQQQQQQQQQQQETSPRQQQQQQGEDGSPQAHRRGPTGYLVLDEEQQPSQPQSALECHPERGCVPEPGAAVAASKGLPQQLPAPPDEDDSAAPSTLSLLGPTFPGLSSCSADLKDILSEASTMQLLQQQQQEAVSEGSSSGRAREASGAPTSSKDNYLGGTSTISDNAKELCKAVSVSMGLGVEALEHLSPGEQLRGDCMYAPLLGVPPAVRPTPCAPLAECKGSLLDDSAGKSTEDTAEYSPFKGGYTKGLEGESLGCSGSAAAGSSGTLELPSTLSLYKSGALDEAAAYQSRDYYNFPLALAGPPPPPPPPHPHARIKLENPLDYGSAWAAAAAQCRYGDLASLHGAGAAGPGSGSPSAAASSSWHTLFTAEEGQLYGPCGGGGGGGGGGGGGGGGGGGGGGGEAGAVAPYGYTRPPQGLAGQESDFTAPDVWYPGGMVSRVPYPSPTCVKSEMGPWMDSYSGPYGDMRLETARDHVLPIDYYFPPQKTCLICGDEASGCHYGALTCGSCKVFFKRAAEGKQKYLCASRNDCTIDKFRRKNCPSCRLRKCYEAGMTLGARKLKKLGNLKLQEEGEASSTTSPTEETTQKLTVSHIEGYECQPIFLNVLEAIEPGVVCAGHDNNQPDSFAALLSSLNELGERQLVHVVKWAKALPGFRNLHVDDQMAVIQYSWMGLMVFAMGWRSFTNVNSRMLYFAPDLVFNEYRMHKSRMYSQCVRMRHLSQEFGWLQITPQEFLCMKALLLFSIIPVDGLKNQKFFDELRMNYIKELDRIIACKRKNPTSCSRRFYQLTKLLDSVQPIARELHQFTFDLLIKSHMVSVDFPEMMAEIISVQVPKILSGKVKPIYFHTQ
As to the kind of experiment: Transcription activating action toward human androgen receptor (agonistic action), MMTV luciferase reporter in CHO cells. It counts as cell-based. Particulars: ratio to transcription activity induced by 1 nM DHT; CHO/MMTV and CHO/SV40 stable transformants. Here is the method:
1. Transcription Activation Regulatory Action Toward Human Androgen Receptor
Acquisition of Human Androgen Receptor-Expressing, Stable Transformant of MMTV Reporter Gene, and Stable Transformant of SV40 Reporter Gene
CHO cells were seeded on a dish for cell culture having a diameter of 100 mm in an amount of 1×10^6 cells. After 12 to 18 hours, a human androgen receptor-expressing plasmid, MMTV-LTR luciferase reporter plasmid (also inclusive of neomycin resistant gene) co-precipitated with calcium phosphate was added thereto to effect transfection. […]
CHO/MMTV stable transformant cells and CHO/SV40 stable transformant cells were each seeded to a 96-well luminoplate for cell culture in an amount of 2×10^4 cells/well. […] Then, emitted light intensity was measured by means of a luminometer, the intensity being regarded as luciferase activity obtained by MMTV-LTR transcription activation due to human androgen receptor and nonspecific activation of SV40 promoter transcription.
The transcription activating action of the compound of the present invention was calculated according to the following equation as a ratio to the transcription activity induced by 1 nM DHT. […]

In data set [3] the target is T1, human androgen receptor. In words: Transcription activation inhibitory action toward human androgen receptor (antagonistic action), MMTV luciferase reporter in CHO cells. It counts as cell-based.
Experimental: b) Evaluation of Transcription Activation Inhibitory Action Toward Human Androgen Receptor (Antagonistic Action)
CHO/MMTV stable transformant cells and CHO/SV40 stable transformant cells were each inoculated to a 96-well luminoplate for cell culture in an amount of 2×10^4 cells. After 6 to 8 hours, each of the compounds of the present invention was added together with DHT (final concentration of 0.3 nM). After about 18 hours from the addition of the compound, 20 μl of a solution containing 1% triton-X and 10% glycerin was added thereto to dissolve the cells and 100 μl of a luciferase substrate solution containing 0.47 mM luciferin was further added thereto. Then, emitted light intensity was measured using a luminometer, the intensity being regarded as luciferase activity obtained by MMTV-LTR transcription activation due to androgen receptor and nonspecific activation of SV40 promoter transcription.
The transcription activation inhibitory action of the compound of the present invention was calculated according to the following equation as an inhibitory ratio to the transcription activity induced by 0.3 nM DHT. Inhibitory ratio (%)=100(I′−X′)/(I′−B)
I′: (MMTV luciferase activity)/(SV40 luciferase activity) in the case that 0.3 nM DHT is only added
B: (MMTV luciferase activity)/(SV40 luciferase activity) without treatment
X′: (MMTV luciferase activity)/(SV40 luciferase activity) in the case that the compound of the present invention is added together with 0.3 nM DHT
IC50 was determined from the concentration of the compound of the present invention at which the inhibitory ratio calculated by the above method reached 50%.

Where a name gives a salt, the structure may show the parent alone. Read-outs that look alike come from different tables or passages of the source.

For `COc1cc(N2C[C@@H](C)N(C(=O)Nc3ccc(C(F)(F)F)nc3)C[C@@H]2C)ccc1C#N` (as salt: salt) [Example 3-15, (2R,5S)-4-(4-cyano-3-methoxyphenyl)-2,5-dimethyl-N-(6-trifluoromethyl-3-pyridyl)piperazine-1-carboxamide], the melting point (as a rule, the temperature of the solid-liquid transition) was in the range of 211 to 212 °C.

`C[C@@H]1CN(c2ccc(C#N)c(Br)c2)[C@@H](C)CN1C(=O)Nc1ccc(C(F)(F)F)nc1` (as salt: salt) [Example 3-23, (2R,5S)-4-(3-bromo-4-cyanophenyl)-2,5-dimethyl-N-(6-trifluoromethyl-3-pyridyl)piperazine-1-carboxamide] returned a melting point of 216 to 218 °C.

As to `C[C@@H]1CN(c2ccc(C#N)c(Cl)c2)[C@@H](C)CN1C(=O)Nc1cnc(C2CC2)nc1` [Example 3-9, (2R,5S)-4-(3-chloro-4-cyanophenyl)-N-(2-cyclopropylpyrimidin-5-yl)-2,5-dimethylpiperazine-1-carboxamide], in data set [1], the ED50 (as a rule, the dose that gives a 50% effect, or the effect in half of the subjects) turned out to be 4.5 mg/kg.

In the case of `C[C@@H]1CN(c2ccc(C#N)c(Cl)c2)[C@@H](C)CN1C(=O)Nc1ccc(C#N)nc1` [Example 3-12, (2R,5S)-4-(3-chloro-4-cyanophenyl)-N-(6-cyano-3-pyridyl)-2,5-dimethylpiperazine-1-carboxamide], in data set [2], the agonistic induction ratio is no more than 1%. The 50% inhibitory concentration (IC50) (commonly the concentration at which inhibition is half-maximal) in data set [3] was 40 nM. The same compound gave an ED50 in data set [1] of 1.7 mg/kg.

For `COc1cc(N2C[C@@H](C)N(C(=O)Nc3ccc(C(F)(F)F)nc3)C[C@@H]2C)ccc1C#N` [Example 3-15, (2R,5S)-4-(4-cyano-3-methoxyphenyl)-2,5-dimethyl-N-(6-trifluoromethyl-3-pyridyl)piperazine-1-carboxamide], in data set [3] (against 0.3 nM DHT, CHO/MMTV and CHO/SV40 stable transformants, read-out: Transcription activation inhibitory action (IC50 nM)), the IC50 stood at 130 nM. In data set [1], this compound displayed an ED50 of 4.1 mg/kg.

Turning to `C[C@@H]1CN(c2ccc(C#N)c(Br)c2)[C@@H](C)CN1C(=O)Nc1ccc(C(F)(F)F)nc1` [Example 3-23, (2R,5S)-4-(3-bromo-4-cyanophenyl)-2,5-dimethyl-N-(6-trifluoromethyl-3-pyridyl)piperazine-1-carboxamide], the IC50 in data set [3] was determined as 53 nM. Besides, it took a dose of 1.1 mg/kg to reach the 50% effect level in data set [1] (ED50).

In data set [3], `C[C@@H]1CN(c2ccc(C#N)c(C(F)(F)F)c2)[C@@H](C)CN1C(=O)Nc1cnc(C2CC2)nc1` [Example 3-30, (2R,5S)-4-(4-cyano-3-trifluoromethylphenyl)-N-(2-cyclopropylpyrimidin-5-yl)-2,5-dimethylpiperazine-1-carboxamide] yielded an IC50 of 68 nM. It took a dose of 3.9 mg/kg to reach the 50% effect level in data set [1] (ED50).
